Series [1] relates to Patient-derived cell line RN1 (MGMT unmethylated GBM). The series is described as follows: Efficacy in balb/c nude mice harboring intracranial patient-derived glioblastoma (RN1), Kaplan-Meier survival. Conditions: for survival rate: at 105 days, control 0%; for median survival time: gavage daily; for mice that survived longer than the longest surviving mouse in the control group: n=8. Here is the method:
Patient-derived cell line RN1 (2 μL) was intra-cranially injected into balb/c nude mice.
6-8 week old balb/c nude mice were used. All procedures, except autopsies, were carried out within a laminar flow cabinet. Tumors were induced following the procedure disclosed in Wakimoto H. et al. (2012) Neuro Oncol. 14(2): 132-44. Balb/c nude mice were weighed and held in groups of four. The mice received an analgesic 2 hours prior to primary human tumor cell implantation—the mice were injected subcutaneously with 5 mg/kg Rimadyl (Carprofen). The animals were anesthetized via continuous mask inhalation of isoflurane (2.5-3%, 1 L/min oxygen for induction and 1-2.5%, 0.2 L/min oxygen for maintenance). The depth of anesthesia was assessed by toe pinch reflex (leg withdrawal) before the procedure began (cf. monitoring sheet #1).
A 2 mm drill hole was made at the stereotactically in the right caudate putamen using the coordinates 1 mm anterior, 1.5 mm lateral, and 3.0 mm below the bregma. A micro-injector unit (holding a 2 μl Hamilton syringe with a 25-gauge needle) connected to the manipulating arm of the stereotactic device was used to inject a 2 μL solution containing 200,000 primary human tumor cells dorsoventrally (DV) at −3 from the skull surface, to deposit cells into the lateral portion of the striatum (right basal ganglia). All injections were made over a period of 10 minutes to ensure optimal parenchymal compliance. The micro-injector needle was retracted and the burr hole in the skull closed using bone-wax (Johnson & Johnson) in order to prevent extracranial tumor growth. Skin was closed using a tissue adhesive (Vetbond). Mice received sterile eye drops (Systane) throughout the procedure to avoid eye dryness.
Two dosages of ibudilast were administered to the balb/c nude mice: 5 mg/kg and 20 mg/kg (both in 100 uL total volume). The dosage of ibudilast was extrapolated from multiple animal studies on rats looking at the treatment of multiple sclerosis (MS) disease and models of central neuropathic pain (Ellis et al. 2014; Reagan-shaw et al. 2008).
10 mg/kg of temozolomide (TMZ) was administered to the balb/c nude mice through intraperitoneal injection.
Five treatment groups were used as follows: • 1. Ibudilast 5 mg/kg by gavage (n=8) • 2. Ibudilast: 20 mg/kg by gavage (n=8) • 3. Combination 1: Ibudilast (5 mg/kg)+TMZ (10 mg/kg) (n=8) • 4. Combination 2: Ibudilast (20 mg/kg)+TMZ (10 mg/kg) (n=8) • 5. Control saline containing polyoxyethylene hydrogenated castor oil 60; 100 μL) (n=8)
For all of the treatment groups (except the control group), ibudilast was administered by gavage (daily) for approximately 59 days (until the last control mouse died) and TMZ was administered via intraperitoneal injection (daily) for two weeks.
At approximately 43 days after tumor implantation, mice were treated with temozolomide (10 mg/kg) and/or ibudilast (5 mg/kg or 20 mg/kg). Ibudilast was administered in a solution of saline containing polyoxyethylene hydrogenated castor oil 60 using the gavage method (100 μl total volume) (Fujimoto et al., 1999 J Neuroimmunology 95:1-2, 35-42). Temozolomide was delivered by intraperitoneal injection (I.P.) in 0.1% dimethyl sulfoxide (DMSO, […] total volume).
At this particular time, animals were carefully monitored (twice daily) as neurological decline can occur rapidly. Typical signs of neurological decline include a hunched posture with an arched back, continuous circling, walking on tip-toes, balance issues, closed eyes, hyperactivity, and seizures. Neurological decline was scored (cf. monitoring sheet #3) for each animal.
When signs of pain, distress or neurological decline were noted, animals were immediately euthanized by inhalation of a progressive overdose of carbon dioxide (cf. B.7). Animals were also immediately euthanized if they lost more than 20% of their body weight.

For series [2] the following is noted: in vivo; cited from earlier work.

Consider `Cn1nnc2c(C(N)=O)ncn2c1=O` [TMZ, temozolomide], for which, in series [1] (TMZ 10 mg/kg intraperitoneal daily for two weeks, control 100.5 days), the median survival is recorded as 105.5 days.
With `CC(C)C(=O)c1c(C(C)C)nn2ccccc12` [ibudilast, 3-isobutyryl-2-isopropylpyrazolo[1,5-a]pyridine], the “effect in the mouse glioblastoma model” value in series [1] (5 and 20 mg/kg) is on record as “positive effect”. Besides, the survival rate is given as 12% in series [1] (ibudilast 5 mg/kg) and 25% in series [1] (ibudilast 20 mg/kg). The median survival time in series [1] (ibudilast 5 mg/kg (low dose) monotherapy, control 100.5 days) stood at 89 days; in series [1] (ibudilast 20 mg/kg (high dose) monotherapy, control 100.5 days), 97.5 days. Moreover, the figures for the “mice that survived longer than the longest surviving mouse in the control group” value in series [1] (ibudilast 5 mg/kg) and in series [1] (ibudilast 20 mg/kg) were “one mouse” and “two mice”, respectively. Further, the “median survival compared with controls (significance)” value in series [1] (monotherapy at either low dose (5 mg/kg) or high dose (20 mg/kg)) is on record as “did not significantly differ from the controls”. Also, in series [2], the CNS penetration result is given as “good CNS penetration”.
On to `COc1ccc(C2CNC(=O)C2)cc1OC1CCCC1` (centres unmarked) [rolipram], for which, in series [2], the CNS penetration result is given as “poor penetration”.

Source of the values: patent US11446283B2, “Methods and dosing regimens using ibudilast and a second agent for cancer therapy” (MediciNova, Inc., priority 2018, dated 2022).
